Source: article PMC9653453, “Development of truncated elastin-like peptide analogues with improved temperature-response and self-assembling properties” (Scientific Reports, 2022)
Entries after “also recorded” stand apart in the source; their conditions may differ. Ends that are not written are not given here.

Legend:
[1] = Colorimetric (xylenol orange) determination of Cd^2+ removal by peptide coacervation; details: peptide 1.0 mg/mL; for Concentration of metal ion in the supernatant: Cd^2+ (0.236 mM CdCl2), Tris-HCl (50.0 mM Tris, 599 mM NaCl, pH 8.0), at least three measurements; for Concentration of metal ion in the supernatant / Removal efficiency: mean ± SE; for Removal efficiency: Cd^2+, versus control without peptide
Procedure: (§1) Colorimetric analyses of cadmium ions (Cd^2+) were carried out to evaluate the number of metal ions absorbed into the coacervation phase of the peptides by using a spectral photometer (JASCO V-660)[45]. […] The peptide solutions were incubated at 4 ℃ for 3, 6, or 12 h and then at 60 ℃ for 1.5 h to separate into the lower coacervation phase from the upper equilibrium solution phase. After incubation, the peptide solution was immediately centrifuged at room temperature for 2 min (6,200 rpm) to remove aggregates. An aliquot of 333 µL of supernatant of the equilibrium solution phase was added to 600 µL of acetate buffer solution (pH5.4) including 67 μM of XO and incubated for 10 min. Subsequently, the concentrations of Cd^2+ or Zn^2+ were determined by measuring the absorbance at 575 nm or 550 nm, respectively, which corresponds to the absorbance of the metal-XO complex. The amount of metal ions absorbed in the peptide solution was determined by the calibration line, which was prepared in the same manner by using a series of standard CdCl2 or ZnCl2 aqueous solutions of known concentrations. The homogeneity of variances between the concentration of each metal ion in the supernatant and the control solution was confirmed using the F test. The statistical significance of the difference between the concentration of each metal ion in the supernatant and the control solution was determined using the Student's t-test. Results were considered statistically significant at P values of ≤ 0.01.

[2] = Colorimetric (xylenol orange) determination of Zn^2+ removal by peptide coacervation; details: peptide 1.0 mg/mL, mean ± SE
Procedure: as §1, with “The homogeneity of variances between the concentration of each metal ion in the supernatant and the control solution was confirmed using the F test.” left out, “Results were considered statistically significant at P values of ≤ 0.01.” left out

[3] = Turbidity measurement of AADAAC-(FPGV)4 in Tris-HCl buffer pH 8.4 with or without CdCl2 / NaCl; type: physicochemical; details: for Tt: turbidity at 400 nm, mean ± SE, at least three measurements
Procedure: This hexapeptide sequence strongly and selectively binds to cadmium above pH 6.0, whereas this peptide releases metal ions below pH 4.0[51]. […] To assess the self-assembly property, turbidity measurements of AADAAC-(FPGV)4 were carried out under the same conditions as described above (Table 2 and Fig. 8). First, AADAAC-(FPGV)4 was dissolved to a concentration of 10 mg/mL in Tris–HCl buffer (pH 8.4) instead of phosphate buffer (pH 7.4), considering its use as a metal scavenging agent under basic conditions. Under these conditions, the Tt of AADAAC-(FPGV)4 was 41.6 ± 1.0 ℃ at a peptide concentration of 10 mg/mL. Since Tt tended to increase with the proportion of hydrophilic residues in the peptide, the self-assembling ability of AADAAC-(FPGV)4 was weakened compared with that of (FPGV)4, owing to the presence of hydrophilic Asp and Cys residues in the AADAAC sequence conjugated to (FPGV)4[34]. On the other hand, in the presence of Cd^2+, AADAAC-(FPGV)4 was insoluble in the solution. Therefore, the binding of the AADAAC sequence to Cd^2+ ions was thought to contribute to the enhanced self-assembly of AADAAC-(FPGV)4 in the presence of the metal ions. […] This characteristic of AADAAC-(FPGV)4 was similar to that of AADAAC-(FPGVG)4, which we previously reported. Subsequently, to verify whether this peptide can be used as a metal recovery agent at a lower peptide concentration, turbidity measurement using a low-concentration peptide solution (0.5 mg/mL, 0.236 mM) was performed. […] Thus, turbidity was measured in Tris–HCl buffer (50.0 mM Tris, 0.236 mM CdCl2, pH 8.4) containing 0.9% NaCl (154 mM, equivalent to saline), because it has been reported that salts such as NaCl increase the self-association and decrease the Tt of ELPs[52]. […] Owing to this drastic change in water solubility in the presence and absence of cadmium ions, AADAAC-(FPGV)4 was considered to be useful as a Cd^2+-selective metal-scavenging agent.
Turbidity measurements were performed in accordance with previous reports. The temperature-dependent self-assembling properties of the ELP analogues were evaluated using a JASCO V-660 spectral photometer (JASCO Co., Tokyo, Japan). Peptide sample solutions of different concentrations (2.0, 5.0, 10, 20, 30, or 50 mg/mL) were prepared by dissolving each peptide (except for AADAAC-(FPGV)n) in phosphate buffer (27.4 mM Na2HPO4, 17.8 mM NaH2PO4, pH 7.4). […] Turbidity was measured at 400 nm with increasing or decreasing temperature at a rate of 0.5 ℃/min from 5 ℃. The concentration of each sample solution was measured at least three times. […]

[4] = RP-UPLC retention time, used as measure of peptide hydrophobicity; type: physicochemical; details: RP-UPLC-MS; chromatographic
Procedure: Peptide synthesis was carried out using the conventional solid-phase peptide synthesis procedure (see supplementary information). The synthesized peptides were purified using RP-HPLC. The purity and molecular weight of each peptide were confirmed using RP-UPLC-MS (Table S1 and Fig. S1). […]
Retention times of each peptide were determined by RP-UPLC-MS.

[5] = Turbidity measurement (phase transition temperature Tt, coacervation) in phosphate buffer pH 7.4; type: physicochemical; details: turbidity at 400 nm, heating 0.5 ℃/min from 5 ℃, mean ± SE, at least three measurements
Procedure: Turbidity measurements were performed in accordance with previous reports. The temperature-dependent self-assembling properties of the ELP analogues were evaluated using a JASCO V-660 spectral photometer (JASCO Co., Tokyo, Japan). Peptide sample solutions of different concentrations (2.0, 5.0, 10, 20, 30, or 50 mg/mL) were prepared by dissolving each peptide (except for AADAAC-(FPGV)n) in phosphate buffer (27.4 mM Na2HPO4, 17.8 mM NaH2PO4, pH 7.4). AADAAC-(FPGV)4 was dissolved in Tris–HCl buffer solution (50.0 mM Tris, at pH 8.4 or 50.0 mM Tris, 154 mM NaCl, at pH 8.4) to prepare sample solutions of a concentration of 0.5 or 10 mg/mL in the absence or presence of the equimolar amount of CdCl2. Turbidity was measured at 400 nm with increasing or decreasing temperature at a rate of 0.5 ℃/min from 5 ℃. The concentration of each sample solution was measured at least three times. The self-assembling property was described by the phase transition temperature (Tt), which is the temperature at which the turbidity of the solution reaches half the maximum value.

[6] = Time-lapse thioflavin T (ThT) fluorescence assay; type: physicochemical; details: peptide 10 mg/mL; phosphate buffer pH 7.4; 15, 30 and 45 ℃; excitation 446 nm, emission 483 nm
Procedure: Thiofalvin T (ThT) fluorescence measurements were performed for (FPGVG)5, (FPGVG)4, (FPGV)5, and (FPGV)4. Each peptide was dissolved in phosphate buffer (27.4 mM Na2HPO4, 17.8 mM NaH2PO4, pH 7.4) to different concentrations (1.0 mg/mL for (FPGV)5, 5.0 mg/mL for (FPGVG)5 and (FPGV)4, and 10 mg/mL for (FPGVG)4, respectively). Then, 1 mM of ThT aqueous solution was added to each sample at a final ThT concentration of 25 μM) followed by incubation for 1 h at 4 °C. The fluorescence intensity was measured using a FP-8500 spectrofluorometer (JASCO Co.). The excitation was set at 446 nm and the emission was recorded at 483 nm. The fluorescence intensities of samples were monitored at 15 °C for 30 min. Then, the sample temperature was raised to 30 °C and the measurements were performed for another 30 min. The same measurement was also carried out at 45 °C for (FPGV)4.

[7] = Dynamic light scattering (DLS) size distribution of coacervates; type: physicochemical; details: 10 to 50 ℃ in 10 ℃ steps; phosphate buffer pH 7.4; peptide concentrations as in Fig. 3 (2.0-50 mg/mL)
Procedure: The distribution of the particle size in the truncated ELP analogue solution was analyzed via DLS using Zetasizernano ZS (Malvern Instruments Ltd., Worcestershire, U.K.) in a measurement cell ZEN0112 (Malvern Instruments Ltd.)[33]. Peptide samples of different concentrations (2.0, 10, 20, 30, or 50 mg/mL) were prepared by dissolving each peptide in phosphate buffer (27.4 mM Na2HPO4, 17.8 mM NaH2PO4, pH 7.4) and filtered using the Millex-LG filter (pore size 0.2 µm, Merck Millipore) before measurement. DLS analysis was performed by increasing the temperature at 10 ℃ intervals from 10 to 50 ℃. Measurement duration was selected automatically. Parameter dataset “protein” (dataset: refractive index, 1.450; absorption, 0.001) was used as the material parameter, and parameter dataset “water” (dataset: refractive index, 1.330; viscosity, 0.8872) was chosen as the dispersant parameter. Attenuation was selected automatically. Each concentration was measured at least three times.

[8] = Optical microscopy of peptide aggregates with image analysis of particle size; type: physicochemical; details: peptide 10 mg/mL, phosphate buffer pH 7.4
Procedure: The morphology of the coacervates of (FPGVG)4, (FPGV)4, and (FPG)4 was observed using optical microscopy. Light field observation was performed using a Leica DM IL LED microscope (Leica Microsystems CMS, Wetzlar, Germany) equipped with HI PLAN 40 × (Leica Microsystems CMS) and HC PLAN 10 × (Leica Microsystems CMS) objectives. Each peptide was dissolved in phosphate buffer (27.4 mM Na2HPO4, 17.8 mM NaH2PO4, at pH 7.4) to a concentration of 10 mg/mL and applied on a glass slide. Sample imaging was performed below and above the Tt of each peptide using a Thermo Plate TP-CHSQM (Tokai Hit Co., Ltd., Shizuoka, Japan). Sample images above Tt were taken 3 min after the sample reached the target temperature. The details of the image analysis is shown in the Supplementary Information file.
Size distribution of coacervates of ELP analogues formed above the Tt was analyzed using optical microscopy images of each peptide. Image analysis was performed using Image J/Fiji (NIH, USA), an open-source image analysis software.^2 Spatial calibration was carried out using […] in original images. The images of peptide coacervates were converted to a binary image via the menu command Image > Type > 8-bit. Using "analyze particle" command, the Feret diameters of the particles within the image were measured.

Row | Substance | Concentration of metal ion in the supernatant ([1]; incubation 3 h at 4 ℃ then 60 ℃ 1.5 h, xylenol orange absorbance 575 nm) [ppm] | Concentration of metal ion in the supernatant ([1]; incubation 6 h at 4 ℃ then 60 ℃ 1.5 h) [ppm] | Concentration of metal ion in the supernatant ([1]; incubation 12 h at 4 ℃ then 60 ℃ 1.5 h) [ppm] | Removal efficiency ([1]; incubation 6 h) [%] | Removal efficiency ([1]; incubation 12 h) [%] | Cd^2+ concentration remaining in the supernatant ([1]; incubation for 12 h at 4 ℃ before heating) [%] | Concentration of metal ion in the supernatant ([2]; Zn^2+ (0.236 mM ZnCl2), incubation 12 h at 4 ℃ then 60 ℃ 1.5 h, Tris-HCl (50.0 mM Tris, 599 mM NaCl, pH 8.0), xylenol orange absorbance 550 nm, at least three measurements) [ppm] | Removal efficiency ([2]; Zn^2+, incubation 12 h, versus control without peptide) [%] | Tt ([3]; peptide 0.5 mg/mL (0.236 mM), Tris-HCl buffer (50.0 mM Tris, pH 8.4) with 154 mM NaCl and 0.236 mM CdCl2 (equimolar)) [°C] | Coacervation (in words) ([3]; peptide 0.5 mg/mL (0.236 mM), Tris-HCl buffer (50.0 mM Tris, pH 8.4) with 154 mM NaCl, absence of Cd^2+) | Tt / solubility in the presence of Cd^2+ ([3]; peptide 10 mg/mL (4.71 mM), Tris-HCl buffer (50.0 mM Tris, pH 8.4) with 4.71 mM CdCl2) | Tt ([3]; peptide 10 mg/mL (4.71 mM), Tris-HCl buffer (50.0 mM Tris, pH 8.4), no additive, 0.5 ℃/min) [°C] | UPLC retention time (measure of hydrophobicity) [4] [min] | Tt, phase transition temperature ([5]; peptide 5.0 mg/mL, phosphate buffer pH 7.4, half-maximal turbidity) [°C] | Tt, phase transition temperature ([5]; peptide 10 mg/mL, phosphate buffer (27.4 mM Na2HPO4, 17.8 mM NaH2PO4, pH 7.4), Tt = temperature at half-maximal turbidity) [°C] | ThT fluorescent intensity versus temperature (in words) [6] | Temperature-dependent particle size by DLS (in words) [7] | Morphology of aggregates (optical microscopy, in words) [8] | Particle size of coacervates (optical microscopy image analysis, Feret diameter) ([8]; above Tt ((FPGVG)4 40 °C, (FPGV)4 25 °C), ImageJ/Fiji)
1 | AADAACFPGVFPGVFPGVFPGV-NH2 [AADAAC-(FPGV)4, H-AADAAC-(FPGV)4-NH2] | 6.8 ± 0.11 | 2.5 ± 0.49 | 1.3 ± 0.046 | 90.9 ± 0.018 | 95.1 ± 0.002 | 4.9 | 4.4 ± 0.008 | 75.3 ± 0.001 | 13.8 ± 0.1 | did not show coacervation | insoluble; also recorded: Not dissolved | 41.6 ± 1.0 | 2.496 | – | – | – | – | – | –
2 | FPGVGFPGVGFPGVGFPGVG-NH2 [(FPGVG)4, reference compound] | – | – | – | – | – | – | – | – | – | – | – | – | 2.251 | 47.5 ± 0.3 | 33.8 ± 0.3 | significantly elevated at 45 °C | formed sub-micron particles below Tt, which grew into micrometer-sized particles above Tt | spherical aggregates | about 1 µm
